Measured values as given in patent US9980943B2, “Methods of treating muscular dystrophy” (BOARD OF REGENTS OF THE NEVADA SYSTEM OF HIGHER EDUCATION, …, priority 2013, dated 2018).
“And” between values parts separate entries of the source, which are not always exact repeats. Equal values may be shown once.

Columns and labels:
Assay type in all cases: cell-based, mouse
[1] = system: β-galactosidase in CMV-LacZ C2C12 myoblasts; experiment: CMV-LacZ secondary screen in C2C12 myoblasts (β-Gal stabilizing assay); details: CMV-LacZ C2C12 myoblasts
In short: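 A secondary screen identifies compounds that stabilize β-gal independently of the native promoter, using CMV-LacZ C2C12 cells. Curves span 0.5–40 μM at six levels, in duplicate.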

[2] = system: α7 integrin (LacZ reporter in α7βgal+/− myoblasts); experiment: Myoblast α7+/LacZ integrin FDG assay (Burkin assay in myoblasts, 96-well); details: α7+/LacZ myoblasts, 96-well
[3] = system: β-galactosidase in CMV-LacZ C2C12 myotubes; experiment: CMV-LacZ secondary screen in C2C12 myotubes (β-Gal stabilizing assay); details: C2C12 CMV-LacZ myotubes, fold relative to DMSO
In short: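 Stable CMV-LacZ C2C12 clone; six-point curve 0.5–40 μM; duplicates.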

[4] = system: α7 integrin (LacZ reporter in α7+/LacZ myotubes); experiment: Myotube α7 integrin FDG assay (Burkin assay in myotubes, 96-well); details: myotubes

| SMILES | CMV-LACZ in Myoblasts (β-galactosidase activity relative to DMSO) ([1]; 0.5 uM) | CMV-LACZ in Myoblasts (β-galactosidase activity relative to DMSO) ([1]; 1 uM) | CMV-LACZ in Myoblasts (β-galactosidase activity relative to DMSO) ([1]; 5 uM) | CMV-LACZ in Myoblasts (β-galactosidase activity relative to DMSO) ([1]; 10 uM) | CMV-LACZ in Myoblasts (β-galactosidase activity relative to DMSO) ([1]; 20 uM) | CMV-LACZ in Myoblasts (β-galactosidase activity relative to DMSO) ([1]; 40 uM) | Burkin Assay in Myoblasts, signal relative to DMSO ([2]; 0.5 uM) | Burkin Assay in Myoblasts, signal relative to DMSO ([2]; 1 uM) | Burkin Assay in Myoblasts, signal relative to DMSO ([2]; 5 uM) | Burkin Assay in Myoblasts, signal relative to DMSO ([2]; 10 uM) | Burkin Assay in Myoblasts, signal relative to DMSO ([2]; 20 uM) | Burkin Assay in Myoblasts, signal relative to DMSO ([2]; 40 uM) | CMV-LACZ in Myotubes, signal relative to DMSO ([3]; 0.5 uM) | CMV-LACZ in Myotubes, signal relative to DMSO ([3]; 1 uM) | CMV-LACZ in Myotubes, signal relative to DMSO ([3]; 5 uM) | CMV-LACZ in Myotubes, signal relative to DMSO ([3]; 10 uM) | CMV-LACZ in Myotubes, signal relative to DMSO ([3]; 20 uM) | CMV-LACZ in Myotubes, signal relative to DMSO ([3]; 40 uM) | Burkin Assay in Myotubes, α7 integrin LacZ reporter signal relative to DMSO ([4]; 0.5 uM) | Burkin Assay in Myotubes, α7 integrin LacZ reporter signal relative to DMSO ([4]; 1 uM) | also measured |
| --- | --- | --- | --- | --- | --- | --- | --- | --- | --- | --- | --- | --- | --- | --- | --- | --- | --- | --- | --- | --- | --- |
| O=C(Nc1ccccc1Cl)C1CCCN1C(=O)OCc1ccccc1 (stereo not drawn) [MLS001030621-01] | 0.7081 | 1.0531 | 1.0494 | 1.1844 | 1.0307 | 0.9063 | 1.004 | 1.158 | 1.15 | 1.161 | 1.001 | 1.01 | 0.7844 | 0.7970 | 0.9872 | 1.0546 | 0.9024 | 1.0141 | 0.9724 | 0.9493 | Burkin Assay in Myotubes, α7 integrin LacZ reporter signal relative to DMSO ([4]; 5 uM): 0.999; Burkin Assay in Myotubes, α7 integrin LacZ reporter signal relative to DMSO ([4]; 10 uM): 0.9429; Burkin Assay in Myotubes, α7 integrin LacZ reporter signal relative to DMSO ([4]; 20 uM): 0.7954; Burkin Assay in Myotubes, α7 integrin LacZ reporter signal relative to DMSO ([4]; 40 uM): 0.7203 |
| CC(C(=O)Nc1ccc(C#N)cc1)N(C)CC(=O)Nc1cccc(F)c1 (stereo not drawn) [MLS001033255-01] | 0.7590 | 1.0723 | 0.8766 | 1.0219 | 1.1919 | 0.7905 | 1.013 | 0.9373 | 1.017 | 1.124 | 0.985 | 0.8279 | 1.1038 | 1.1438 | 0.9525 and 0.8423 | 1.0297 and 1.045 | 0.9930 and 1.013 | 0.7740 and 1.236 | 0.91 | 0.8188 | Burkin Assay in Myoblasts, value relative to DMSO ([2]; 0.5 uM): 0.9467; Burkin Assay in Myoblasts, value relative to DMSO ([2]; 1 uM): 0.9407; Burkin Assay in Myoblasts, value relative to DMSO ([2]; 5 uM): 0.9509; Burkin Assay in Myoblasts, value relative to DMSO ([2]; 10 uM): 0.9542; Burkin Assay in Myoblasts, value relative to DMSO ([2]; 20 uM): 0.7962; Burkin Assay in Myoblasts, value relative to DMSO ([2]; 40 uM): 0.799; Burkin Assay in Myotubes (signal relative to DMSO) ([4]; 0.5 uM): 0.9678; Burkin Assay in Myotubes (signal relative to DMSO) ([4]; 1 uM): 0.9526; Burkin Assay in Myotubes (signal relative to DMSO) ([4]; 5 uM): 1.213; Burkin Assay in Myotubes (signal relative to DMSO) ([4]; 10 uM): 0.997; Burkin Assay in Myotubes (signal relative to DMSO) ([4]; 20 uM): 0.8683; Burkin Assay in Myotubes (signal relative to DMSO) ([4]; 40 uM): 1.04; Burkin Assay in Myotubes, α7 integrin LacZ reporter signal relative to DMSO ([4]; 5 uM): 1.086; Burkin Assay in Myotubes, α7 integrin LacZ reporter signal relative to DMSO ([4]; 10 uM): 1.246; Burkin Assay in Myotubes, α7 integrin LacZ reporter signal relative to DMSO ([4]; 20 uM): 0.8337; Burkin Assay in Myotubes, α7 integrin LacZ reporter signal relative to DMSO ([4]; 40 uM): 1.232 |
| CCc1ccc(S(=O)(=O)NCCOc2cccc3cccnc23)cc1 [MLS001034810-01] | 0.9698 | 0.9538 | 1.0948 | 0.9459 | 1.1193 | 0.7030 | 1.021 | 0.9975 | 1.375 | 1.191 | 0.8996 | 0.8407 | 1.1000 | 1.7389 | 0.9578 | 1.0965 | 1.0578 | 1.1344 | 1.035 | 1.07 | Burkin Assay in Myotubes, α7 integrin LacZ reporter signal relative to DMSO ([4]; 5 uM): 1.403; Burkin Assay in Myotubes, α7 integrin LacZ reporter signal relative to DMSO ([4]; 10 uM): 1.165; Burkin Assay in Myotubes, α7 integrin LacZ reporter signal relative to DMSO ([4]; 20 uM): 1; Burkin Assay in Myotubes, α7 integrin LacZ reporter signal relative to DMSO ([4]; 40 uM): 0.7593 |
| O=C(c1ccccc1)N1CCN(S(=O)(=O)c2cccs2)CC1 [MLS001035690-01] | 0.9819 | 1.0406 | 0.9910 | 1.2020 | 1.3585 | 0.9178 | 1.051 | 1.151 | 1.186 | 0.9872 | 1.055 | 1.091 | 1.0474 | 0.8644 | 1.1552 | 1.1317 | 1.1976 | 1.0976 | 1.111 | 1.072 | Burkin Assay in Myotubes, α7 integrin LacZ reporter signal relative to DMSO ([4]; 5 uM): 1.073; Burkin Assay in Myotubes, α7 integrin LacZ reporter signal relative to DMSO ([4]; 10 uM): 0.9358; Burkin Assay in Myotubes, α7 integrin LacZ reporter signal relative to DMSO ([4]; 20 uM): 0.972; Burkin Assay in Myotubes, α7 integrin LacZ reporter signal relative to DMSO ([4]; 40 uM): 0.9238 |
| Cc1noc(C)c1COc1ccc(C(=O)NCCc2ccccn2)cc1 [MLS001061374-01] | 0.7117 | 1.1702 | 1.0601 | 0.9793 | 0.9744 | 1.1037 | 0.8477 | 0.8448 | 0.9826 | 1.169 | 0.873 | 0.6774 | 1.2568 | 1.1000 | 1.1237 | 0.8498 | 1.1689 | 1.0489 | 1.058 | 1.092 | Burkin Assay in Myotubes, α7 integrin LacZ reporter signal relative to DMSO ([4]; 5 uM): 1.004; Burkin Assay in Myotubes, α7 integrin LacZ reporter signal relative to DMSO ([4]; 10 uM): 1.181; Burkin Assay in Myotubes, α7 integrin LacZ reporter signal relative to DMSO ([4]; 20 uM): 0.732; Burkin Assay in Myotubes, α7 integrin LacZ reporter signal relative to DMSO ([4]; 40 uM): 0.8155 |
| CC1(C)Cc2c(c(N3CCOCC3)nc3sc(C(=O)Nc4ccccc4)c(N)c23)CO1 [MLS001075922-01] | 0.9434 | 1.3028 | 1.6332 | 1.2361 | 0.9881 | 1.3037 | 1.2085 | 1.292 | 0.6039 | 0.2869 | 0.5678 | 0.6464 | 1.0222 | 1.0533 | 1.2947 | 1.2173 | 1.0282 | 0.8388 | 1.292 | 1.143 | Burkin Assay in Myotubes, α7 integrin LacZ reporter signal relative to DMSO ([4]; 5 uM): 0.6556; Burkin Assay in Myotubes, α7 integrin LacZ reporter signal relative to DMSO ([4]; 10 uM): 0.629; Burkin Assay in Myotubes, α7 integrin LacZ reporter signal relative to DMSO ([4]; 20 uM): 1.067; Burkin Assay in Myotubes, α7 integrin LacZ reporter signal relative to DMSO ([4]; 40 uM): 0.8243 |
